From patent US20250275966A1, “GABAA RECEPTOR MODULATOR SALTS, PARTICLES, AND USES THEREOF” (Engrail Therapeutics, Inc., priority 2022, published 2025)
Values after ≈ are worked out from the molar mass of the structure shown. Counter-ions that a name gives are not always drawn.

Tests used:
[1] = Pharmacokinetic analysis of Compound 1 and its salts after oral capsule administration (Example 4); assay type: in vivo, cynomolgus monkeys; details: single PO capsule, 30 mg/kg
Experimental: A pharmacokinetic analysis was performed comparing administration of Compound 1 with certain salts of Compound 1 after oral (PO) administration in 3 male cynomolgus monkeys. The subjects received a single PO oral gavage of active pharmaceutical ingredient (API) (e.g., Compound 1 fumarate, Compound 1 sulfate, Compound 1 hydrochloride, Compound 1 phosphate, Compound 1 tosylate, Compound 1 malonate, Compound 1 maleate, or Compound 1 free base) in a capsule at a dose of 30 mg/kg. Following dose administration, the animals were flushed with approximately 10 milliliters of tap water to ensure all API was administered. Animals were observed twice daily and at sample collection time-points for any abnormal clinical and behavioral signs. Body weights were taken prior to dosing and weekly thereafter until study termination. Blood samples (0.5 mL) were collected pre-dose, 15 minutes, 30 minutes, and 1, 2, 4, 6, 8, 10, 12, and 24 hours post-dose. Each blood sample was collected from the monkey's femoral, saphenous or other available vein via direct venipuncture, placed into a polypropylene tube containing K2EDTA as the anticoagulant, and gently inverted several times to mix. The blood samples were kept on wet ice until centrifugation. Blood was centrifuged within 10 minutes of collection. The samples were centrifuged at a temperature of 4° C., at 3,000 g, for 5 minutes. The resulting plasma (˜0.25 mL) was divided into two equal aliquots (125 μL each) into polypropylene tubes, designated as Set A and Set B, after centrifugation. Plasma samples designated for certain metabolites (Set A) were treated with 12.5 μL of 2 M ascorbic acid (plasma: ascorbic acid=[…], v:v) prepared beforehand by combining 0.352 g of ascorbic acid into 1 mL of sterile water in a glass vial and mixing thoroughly. […] Once plasma was prepared, the samples were snap frozen on dry ice. All plasma samples were stored frozen below −70° C. until analyzed.

[2] = Intrinsic dissolution rate and solubility in 0.1 N HCl with 1% Tween 80 (USP <1087>); assay type: physicochemical; details: 0.1 N HCl with 1% Tween 80, 37° C.; for Solubility, time point 15 min / Solubility, time point 30 min / Solubility, time point 45 min / Solubility, time point 60 min / Solubility, time point 75 min / Solubility, time point 90 min / Solubility, time point 105 min / Solubility, time point 120 min: 500 mL, pellet about 75 mg; for Intrinsic Dissolution Rate IDR: paddle 100 rpm, die surface 0.5 cm^2; for Solubility, Cumulative: sum of the 15-120 min time points
Experimental: The intrinsic dissolution rate was determined by forming compacted pellets of approximately 75 mg of API using a compression force of 1200 pounds of force, and each pellet (die surface area: 0.5 cm^2) was immersed into a flat bottom vessel containing 500 mL of medium (aqueous 0.1 N HCl with 1% Tween 80 (polyoxyethylene (20) sorbitan monooleate)), using a Distek 2100A dissolution bath, and Distek Circulator/heater (set to 37° C.), with a paddle speed of 100 rpm. An aliquot of the sample (1 mL) was pulled from dissolution media at 15, 30, 45, 60, 75, 90, 105, and 120 minutes, filtered, and analyzed by HPLC. The slope of the dissolution profile corresponded to an intrinsic dissolution rate of hemi-fumarate salt Form B of 6.2 μg/(min·cm^2) as compared to 8.9 μg/(min·cm^2) for Compound 1 (free base). Determination of intrinsic dissolution rate (IDR) was performed for Compound 1 and seven different salts of Compound 1 according to USP <1087> in 0.1 N hydrochloric acid with 1% Tween 80 (Polyoxyethylene […] sorbitan monooleate). Compacted pellets containing approximately 75 mg API were prepared using a compression force of 1200 pounds of force, and each pellet (die surface area: 0.5 cm^2) was immersed into a flat bottom vessel containing 500 mL of medium, using a Distek 2100A dissolution bath, and Distek Circulator/heater (set to 37° C.), with a paddle speed of 100 rpm. An aliquot of the sample (1 mL) was pulled from dissolution media at 15, 30, 45, 60, 75, 90, 105, and 120 minutes, filtered, and analyzed by HPLC. HPLC for IDR and solid-state stability analyses were conducted with an Agilent 1260 Infinity system equipped with a G1311B Quad pump, […] Autosampler, G1330B auto-sampler thermostat, G1316A Thermostatted Column Compartment with a column switch valve, and […] diode array detector.

[3] = 3 male cynomolgus monkeys, plasma Compound 1
[4] = 3 male cynomolgus monkeys, plasma Compound 1, listed as Free base
[5] = listed as Compound 1 (parent free base)

| SMILES | AUClast [1, 3] | Cmax [1, 3] | Tmax [1, 3] | Solubility, time point 15 min [2] | Solubility, time point 30 min [2] | Solubility, time point 45 min [2] | Solubility, time point 60 min [2] | Solubility, time point 75 min [2] | Solubility, time point 90 min [2] | Solubility, time point 105 min [2] | Solubility, time point 120 min [2] | Intrinsic Dissolution Rate IDR [2] | Solubility, Cumulative [2] | other results |
| --- | --- | --- | --- | --- | --- | --- | --- | --- | --- | --- | --- | --- | --- | --- |
| [2H]C([2H])([2H])C(c1cc2nnc(-c3cc(F)ccc3F)n2nc1OCc1ncnn1C)(C([2H])([2H])[2H])C([2H])([2H])[2H] [Sulfate Salt, 3-(2,5-difluorophenyl)-7-[1,1-di(methyl-d3)ethyl-2,2,2-d3]-6-[(1-methyl-1H-1,2,4-triazol-5-yl)methoxy]-1,2,4-triazolo[4,3-b]pyridazine] | 18231 ng·h/mL | 1151 ng/mL | 4.0 h | 0.316 µg/mL | 0.364 µg/mL | 0.453 µg/mL | 0.569 µg/mL | 0.668 µg/mL | 0.772 µg/mL | 0.944 µg/mL | 1.06 µg/mL | 7.1 μg/(min · cm^2) | 5.146 µg/mL | – |
| [2H]C([2H])([2H])C(c1cc2nnc(-c3cc(F)ccc3F)n2nc1OCc1ncnn1C)(C([2H])([2H])[2H])C([2H])([2H])[2H] [Tosylate Salt, 3-(2,5-difluorophenyl)-7-[1,1-di(methyl-d3)ethyl-2,2,2-d3]-6-[(1-methyl-1H-1,2,4-triazol-5-yl)methoxy]-1,2,4-triazolo[4,3-b]pyridazine] | 23248 ng·h/mL | 1629 ng/mL | 10.7 h | 0.56 µg/mL | 0.638 µg/mL | 0.755 µg/mL | 0.88 µg/mL | 1.02 µg/mL | 1.15 µg/mL | 1.43 µg/mL | 1.39 µg/mL | 8.7 μg/(min · cm^2) | 7.823 µg/mL | – |
| [2H]C([2H])([2H])C(c1cc2nnc(-c3cc(F)ccc3F)n2nc1OCc1ncnn1C)(C([2H])([2H])[2H])C([2H])([2H])[2H] [Compound 1, 3-(2,5-difluorophenyl)-7-[1,1-di(methyl-d3)ethyl-2,2,2-d3]-6-[(1-methyl-1H-1,2,4-triazol-5-yl)methoxy]-1,2,4-triazolo[4,3-b]pyridazine] | – | 1550 ng/mL | – | – | – | – | – | – | – | – | – | – | – | AUClast [1, 4]: 25463 ng·h/mL; Tmax [1, 4]: 4.0 h; AUClast ([1]; male cynomolgus monkeys): 25463 ng·h/mL; Solubility, time point 15 min [2, 5]: 0.413 µg/mL (≈ 1.01 µM); Solubility, time point 30 min [2, 5]: 0.464 µg/mL (≈ 1.14 µM); Solubility, time point 45 min [2, 5]: 0.641 µg/mL (≈ 1.57 µM); Solubility, time point 60 min [2, 5]: 0.823 µg/mL (≈ 2.01 µM); Solubility, time point 75 min [2, 5]: 0.89 µg/mL (≈ 2.18 µM); Solubility, time point 90 min [2, 5]: 1.026 µg/mL (≈ 2.51 µM); Solubility, time point 105 min [2, 5]: 1.23 µg/mL (≈ 3.01 µM); Solubility, time point 120 min [2, 5]: 1.31 µg/mL (≈ 3.21 µM); Intrinsic Dissolution Rate IDR ([2]; listed as Compound 1 (free base)): 8.9 μg/(min · cm^2); Intrinsic Dissolution Rate IDR [2, 5]: 8.9 μg/(min · cm^2); Solubility, Cumulative [2, 5]: 6.797 µg/mL (≈ 16.6 µM) |
| [2H]C([2H])([2H])C(c1cc2nnc(-c3cc(F)ccc3F)n2nc1OCc1ncnn1C)(C([2H])([2H])[2H])C([2H])([2H])[2H] [Malonate Salt, 3-(2,5-difluorophenyl)-7-[1,1-di(methyl-d3)ethyl-2,2,2-d3]-6-[(1-methyl-1H-1,2,4-triazol-5-yl)methoxy]-1,2,4-triazolo[4,3-b]pyridazine] | 24694 ng·h/mL | 2010 ng/mL | 4.7 h | 0.352 µg/mL | 0.454 µg/mL | 0.579 µg/mL | 0.68 µg/mL | 0.757 µg/mL | 0.87 µg/mL | 1.04 µg/mL | 1.05 µg/mL | 6.9 μg/(min · cm^2) | 5.782 µg/mL | – |
